Reference: PubChem BioAssay AID1845205 (Molecular Pharmacology Branch, DTP, NCI, 2023)

System: MPNST multicellular tumor spheroids, viability % test/control
Assay: Anticancer human tumor MPNST cell line growth inhibition;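 also: spheroids exposed to agents for seven days after three days of growth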;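 as to viability, T/C: luminescence signal used as surrogate for viable cell amount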
Conditions: for IC50: curve of first compound; for viability, T/C: stronger effect = lower value
Method in brief: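 Complex tumor spheroids combined malignant cells with endothelial cells and mesenchymal stem cells. DNA-damaging drugs and DNA repair inhibitors were tested alone and in combination, at half-log dilutions down from clinical Cmax (top 10 microM if Cmax unknown), 0.25% DMSO final.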

[1] = second compound 0.003 µM, first compound 0.0316 µM
[2] = second compound 0.003 µM, first compound 0.1 µM
[3] = second compound 0.003 µM, first compound 0.316 µM
[4] = second compound 0.003 µM, first compound 1 µM
[5] = second compound 0.003 µM, first compound 3.16 µM
[6] = second compound 0.003 µM, first compound 10 µM
[7] = second compound 0.00949 µM, first compound 0.0316 µM
[8] = second compound 0.00949 µM, first compound 0.1 µM
[9] = second compound 0.00949 µM, first compound 0.316 µM
[10] = second compound 0.00949 µM, first compound 1 µM
[11] = second compound 0.00949 µM, first compound 3.16 µM
[12] = second compound 0.00949 µM, first compound 10 µM
[13] = second compound 0.03 µM, first compound 0.0316 µM
[14] = second compound 0.03 µM, first compound 0.1 µM
[15] = second compound 0.03 µM, first compound 0.316 µM
[16] = second compound 0.03 µM, first compound 1 µM
[17] = second compound 0.03 µM, first compound 3.16 µM
[18] = second compound 0.03 µM, first compound 10 µM
[19] = second compound 0.0949 µM, first compound 0.0316 µM
[20] = second compound 0.0949 µM, first compound 0.1 µM
[21] = second compound 0.0949 µM, first compound 0.316 µM
[22] = second compound 0.0949 µM, first compound 1 µM
[23] = second compound 0.0949 µM, first compound 3.16 µM
[24] = second compound 0.0949 µM, first compound 10 µM
[25] = second compound 0.3 µM, first compound 0.0316 µM
[26] = second compound 0.3 µM, first compound 0.1 µM
[27] = second compound 0.3 µM, first compound 0.316 µM
[28] = second compound 0.3 µM, first compound 1 µM
[29] = second compound 0.3 µM, first compound 3.16 µM
[30] = second compound 0.3 µM, first compound 10 µM

With CC(C)n1c(=O)n(C)c2cnc3cc(F)c(-c4ccc(OCCCN5CCCCC5)nc4)cc3c21 + CC[C@@]1(O)C(=O)OCc2c1cc1n(c2=O)Cc2cc3c(CN(C)C)c(O)ccc3nc2-1 the IC50 (second compound 0.003 µM) was 6260 nM, the IC50 (second compound 0.00949 µM) was less than 31.6 nM and the IC50 (second compound 0.03 µM) was less than 31.6 nM. For the same compound, the IC50 (second compound 0.0949 µM) was less than 31.6 nM, the IC50 (second compound 0.3 µM) was less than 31.6 nM and the viability, T/C [1] was 65.9%. For the same compound, the viability, T/C [2] was 52%, the viability, T/C [3] was 79.9% and the viability, T/C [4] was 97.3%. The viability, T/C [5] was 59.6%, the viability, T/C [6] was 38.8% and the viability, T/C [7] was 46.8%. It also gave a viability, T/C [8] of 41.3%, a viability, T/C [9] of 50.5% and a viability, T/C [10] of 41.3%. The viability, T/C [11] was 50.3%, the viability, T/C [12] was 34.6% and the viability, T/C [13] was 35.4%. It also gave a viability, T/C [14] of 33.4%, a viability, T/C [15] of 38.9% and a viability, T/C [16] of 44.5%. For the same compound, the viability, T/C [17] was 44.1%, the viability, T/C [18] was 31.8% and the viability, T/C [19] was 34.6%. It also gave a viability, T/C [20] of 35.2%, a viability, T/C [21] of 35.5% and a viability, T/C [22] of 39.8%. It also gave a viability, T/C [23] of 37.8%, a viability, T/C [24] of 32.6% and a viability, T/C [25] of 30.2%. The viability, T/C [26] was 29%, the viability, T/C [27] was 31.4% and the viability, T/C [28] was 34.9%. For the same compound, the viability, T/C [29] was 36.5% and the viability, T/C [30] was 29.1%.

COc1ccc([C@@H](O)c2cc(-c3ncnc4cc(N5CCOCC5)ccc34)c(F)cc2Cl)nn1 + CC[C@@]1(O)C(=O)OCc2c1cc1n(c2=O)Cc2cc3c(CN(C)C)c(O)ccc3nc2-1 gave an IC50 (second compound 0.003 µM) of 1170 nM, an IC50 (second compound 0.00949 µM) of 641 nM and an IC50 (second compound 0.03 µM) of less than 31.6 nM. It also gave an IC50 (second compound 0.0949 µM) of less than 31.6 nM, an IC50 (second compound 0.3 µM) of less than 31.6 nM and a viability, T/C [1] of 96.3%. The viability, T/C [2] was 77.6%, the viability, T/C [3] was 69.2% and the viability, T/C [4] was 55.6%. For the same compound, the viability, T/C [5] was 33.5%, the viability, T/C [6] was 14.6% and the viability, T/C [7] was 78.4%. The viability, T/C [8] was 81.6%, the viability, T/C [9] was 57.7% and the viability, T/C [10] was 41%. For the same compound, the viability, T/C [11] was 33%, the viability, T/C [12] was 17.3% and the viability, T/C [13] was 42.7%. The viability, T/C [14] was 42.9%, the viability, T/C [15] was 42.6% and the viability, T/C [16] was 36.1%. The viability, T/C [17] was 21%, the viability, T/C [18] was 16.4% and the viability, T/C [19] was 44.7%. For the same compound, the viability, T/C [20] was 39.2%, the viability, T/C [21] was 37.6% and the viability, T/C [22] was 34.7%. The viability, T/C [23] was 22.8%, the viability, T/C [24] was 15.7% and the viability, T/C [25] was 36.1%. The viability, T/C [26] was 39.7%, the viability, T/C [27] was 32.6% and the viability, T/C [28] was 27.6%. It also gave a viability, T/C [29] of 18% and a viability, T/C [30] of 10.3%.
